Converted amounts (≈) assume the structure as drawn. “And” between values parts separate entries of the source, which are not always exact repeats. Identical values can stand only once.
Columns and labels:
Assay in all cases: ≥ marks a high value that may be exact or a test limit, other limits are often not marked, values filed in µg/mL are converted to µM
[1] = test system: Staphylococcus aureus ATCC 2592
[2] = test system: Bacillus subtilis ATCC 6633
[3] = test system: Staphylococcus aureus NCTC 8325
[4] = test system: Candida albicans ATCC 90028
[5] = test system: Escherichia coli ATCC 25922
[6] = test system: Escherichia coli ATCC 25726
[7] = test system: Acinetobacter baumannii
[8] = test system: Staphylococcus aureus ATCC 25923
[9] = test system: Candida albicans ATCC 2002
[10] = test system: Bacillus subtilis

Compound	MIC [1] [µM]	MIC [4] [µM]	MIC [5]	MIC [6] [µM]	MIC [8] [µM]	other results
CC[C@H](C)[C@H](NC(=O)[C@@H](NC(=O)[C@@H](N)Cc1ccccc1)[C@@H](C)CC)C(=O)N[C@H](C(=O)NCC(=O)N[C@@H](CC(C)C)C(=O)N[C@H](C(=O)N[C@@H](CCCN=C(N)N)C(=O)NCC(=O)N[C@@H](CC(C)C)C(=O)N[C@H](C(=O)N[C@@H](CCCCN)C(=O)N[C@@H](CC(C)C)C(=O)N[C@@H](Cc1ccccc1)C(N)=O)[C@@H](C)O)C(C)C)[C@@H](C)O [FIITGLVRGLTKLF]	7.92 (≈ 12.5 µg/mL)					MIC [2]: 15.8 µM (≈ 25 µg/mL)
CC[C@H](C)[C@H](NC(=O)[C@H](C)NC(=O)[C@@H]1CCCN1C(=O)[C@H](CC(C)C)NC(=O)[C@@H](N)Cc1ccccc1)C(=O)N[C@@H](C)C(=O)NCC(=O)N[C@@H](CCSC)C(=O)N[C@@H](C)C(=O)N[C@@H](C)C(=O)N[C@@H](CCCCN)C(=O)N[C@@H](Cc1ccccc1)C(=O)N[C@@H](CC(C)C)C(=O)N1CCC[C@H]1C(=O)N[C@@H](CCCCN)C(=O)N[C@H](C(=O)N[C@@H](Cc1ccccc1)C(=O)N[C@H]1CSSC[C@@H](C(=O)O)NC(=O)[C@H](CCCCN)NC(=O)[C@H](CCCCN)NC(=O)[C@H](CO)NC(=O)[C@H]([C@@H](C)CC)NC(=O)[C@H](C)NC1=O)[C@@H](C)CC [FLPAIAGMAAKFLPKIFCAISKKC]		10 (≈ 25.7 µg/mL)	3 µM (≈ 7.7 µg/mL)			MIC [3]: 1 µM (≈ 2.57 µg/mL)
CC[C@H](C)[C@H](NC(=O)CN)C(=O)NCC(=O)N[C@@H](CCCN=C(N)N)C(=O)N[C@@H](CCCCN)C(=O)N[C@@H](Cc1ccccc1)C(=O)N[C@@H](CC(C)C)C(=O)NCC(=O)NCC(=O)N[C@H](C(=O)N[C@@H](CCCCN)C(=O)N[C@H](C(=O)N[C@H](C(=O)N[C@@H](Cc1ccccc1)C(=O)N[C@@H](CCCN=C(N)N)C(=O)NCC(=O)NCC(=O)N[C@H](C(=O)N[C@@H](CCCCN)C(=O)N[C@@H](CC(=O)O)C(=O)N[C@@H](Cc1ccccc1)C(=O)N[C@@H](C)C(=O)N[C@@H](CO)C(=O)N[C@@H](CCCCN)C(=O)N[C@@H](Cc1cnc[nH]1)C(=O)N[C@@H](CC(C)C)C(=O)N[C@@H](Cc1ccc(O)cc1)C(N)=O)C(C)C)[C@@H](C)O)[C@@H](C)O)C(C)C [GIGRKFLGGVKTTFRGGVKDFASKHLY]	≥ 75		150 µM and 100 µM			
CC[C@H](C)[C@H](NC(=O)CN)C(=O)N[C@@H](CC(C)C)C(=O)N[C@@H](CC(=O)O)C(=O)N[C@H](C(=O)N[C@H](C(=O)N[C@@H](CCCCN)C(=O)N[C@@H](CC(N)=O)C(=O)N[C@@H](C)C(=O)N[C@@H](C)C(=O)N[C@@H](CCCCN)C(=O)N[C@H](C(=O)N[C@H](C(=O)N[C@@H](C)C(=O)N[C@H](C(=O)NCC(=O)N[C@@H](CC(C)C)C(=O)N[C@@H](CC(C)C)C(=O)N[C@@H](CCC(=O)O)C(=O)N[C@@H](CCCCN)C(=O)N[C@H](C(=O)N[C@@H](CCCCN)C(=O)N[C@H]1CSSC[C@@H](C(=O)O)NC(=O)CNC(=O)[C@H]([C@@H](C)O)NC(=O)[C@H](CCSC)NC(=O)[C@H](CCCCN)NC1=O)[C@@H](C)CC)C(C)C)C(C)C)[C@@H](C)O)[C@@H](C)CC)[C@@H](C)O [GILDTIKNAAKTVAVGLLEKIKCKMTGC]		≥ 150	17 µM (≈ 49.6 µg/mL)			MIC [3]: ≥ 70 µM
CC[C@H](C)[C@H](NC(=O)CN)C(=O)N[C@@H](Cc1c[nH]c2ccccc12)C(=O)N[C@@H](CCCCN)C(=O)N[C@H](C(=O)N[C@H](C(=O)N[C@@H](CCCCN)C(=O)N[C@@H](CO)C(=O)N[C@@H](CCSC)C(=O)NCC(=O)N[C@@H](CCCCN)C(=O)N[C@H](C(=O)N[C@@H](Cc1ccccc1)C(=O)N[C@@H](C)C(=O)NCC(=O)N[C@@H](C)C(=O)N[C@H](C(=O)N[C@@H](CC(C)C)C(=O)N[C@@H](CCC(N)=O)C(=O)N[C@@H](CC(N)=O)C(=O)N[C@@H](CC(C)C)C(N)=O)[C@@H](C)CC)C(C)C)[C@@H](C)CC)[C@@H](C)O [GIWKTIKSMGKVFAGAILQNL]		12.5 (≈ 28.4 µg/mL)		12.5 (≈ 28.4 µg/mL)	6.25 (≈ 14.2 µg/mL)	MIC [7]: 12.5 µM (≈ 28.4 µg/mL)
CSCC[C@H](NC(=O)[C@H](CCSC)NC(=O)[C@H](CCCCN)NC(=O)CNC(=O)[C@@H](NC(=O)[C@@H](NC(=O)[C@H](CCCCN)NC(=O)[C@H](CC(C)C)NC(=O)CNC(=O)[C@H](Cc1ccccc1)NC(=O)[C@H](CCCCN)NC(=O)[C@H](Cc1ccccc1)NC(=O)[C@H](C)NC(=O)[C@H](CCCCN)NC(=O)CNC(=O)[C@H](CC(C)C)NC(=O)[C@H](CC(C)C)NC(=O)[C@H](CO)NC(=O)CNC(=O)[C@H](CC(C)C)NC(=O)CN)[C@@H](C)O)C(C)C)C(=O)N[C@@H](C)C(=O)NCC(=O)N[C@@H](C)C(=O)N1CCC[C@H]1C(=O)N[C@@H](CCCN=C(N)N)C(=O)N[C@@H](CCC(=O)O)C(=O)N[C@@H](CCC(N)=O)C(=O)O [GLGSLLGKAFKFGLKTVGKMMAGAPREQ]		25 (≈ 72.3 µg/mL)		12.5 (≈ 36.2 µg/mL)	6 (≈ 17.4 µg/mL)	
CC[C@H](C)[C@H](NC(=O)[C@H](C)NC(=O)[C@H](CC(C)C)NC(=O)[C@H](CC(N)=O)NC(=O)[C@H](CCCCN)NC(=O)[C@H](CC(C)C)NC(=O)[C@H](CO)NC(=O)[C@H](CC(=O)O)NC(=O)[C@H](CC(C)C)NC(=O)[C@H](CC(C)C)NC(=O)CN)C(=O)N[C@@H](CC(N)=O)C(=O)N[C@@H](C)C(=O)N[C@@H](C)C(=O)N[C@@H](CCCCN)C(=O)NCC(=O)N[C@@H](C)C(=O)NCC(=O)N[C@@H](CCC(N)=O)C(=O)N[C@@H](CO)C(=O)N[C@H](C(=O)N[C@@H](CC(C)C)C(=O)N[C@@H](CC(N)=O)C(=O)N[C@H](C(=O)N[C@@H](CC(C)C)C(=O)N[C@@H](CO)C(=O)N[C@H]1CSSC[C@@H](C(=O)O)NC(=O)[C@H]([C@@H](C)O)NC(=O)[C@H](CCCCN)NC(=O)[C@H](CO)NC(=O)[C@H](CC(C)C)NC(=O)[C@H](CCCCN)NC1=O)[C@@H](C)O)C(C)C [GLLDSLKNLAINAAKGAGQSVLNTLSCKLSKTC]				≥ 37.5	18.8 (≈ 62.5 µg/mL)	
CC[C@H](C)[C@H](N)C(=O)N[C@@H](CC(C)C)C(=O)N1CCC[C@H]1C(=O)N[C@H](C(=O)N[C@@H](CC(C)C)C(=O)NCC(=O)N[C@@H](CC(N)=O)C(=O)N[C@@H](CC(C)C)C(=O)N[C@@H](CC(C)C)C(=O)N[C@@H](CC(N)=O)C(=O)N[C@@H](CO)C(=O)N[C@@H](CC(C)C)C(=O)N[C@@H](CC(C)C)C(N)=O)[C@@H](C)CC [ILPILGNLLNSLL]		≥ 100	> 100 µM			MIC [3]: ≥ 100 µM
CC[C@H](C)[C@H](N)C(=O)N[C@H](C(=O)N[C@H](C(=O)N1CCC[C@H]1C(=O)N1CCC[C@H]1C(=O)N[C@H](C(=O)N[C@H](C(=O)N[C@@H](CCCCN)C(=O)N[C@@H](CC(=O)O)C(=O)N[C@H](C(=O)N[C@@H](CC(C)C)C(=O)N[C@@H](CCCCN)C(=O)N[C@@H](CCCCN)C(=O)N[C@@H](Cc1ccccc1)C(=O)N[C@@H](Cc1ccccc1)C(=O)N[C@@H](CCCCN)C(=O)NCC(=O)NCC(=O)N[C@H](C(=O)N[C@@H](C)C(=O)NCC(=O)N[C@H](C(=O)N[C@@H](CCSC)C(=O)NCC(=O)N[C@@H](CCC(N)=O)C(=O)O)C(C)C)[C@@H](C)CC)[C@@H](C)O)C(C)C)[C@@H](C)CC)[C@@H](C)CC)[C@@H](C)O [ITIPPIVKDTLKKFFKGGIAGVMGQ]				≥ 40	40 (≈ 106 µg/mL)	
CC[C@H](C)[C@H](NC(=O)[C@H](CCC(N)=O)NC(=O)[C@H](CCCCN)NC(=O)CNC(=O)[C@H](CC(C)C)NC(=O)[C@H](CCC(N)=O)NC(=O)CNC(=O)[C@H](CC(C)C)NC(=O)[C@H](CCCCN)NC(=O)[C@H](C)NC(=O)[C@H](CCC(=O)O)NC(=O)[C@H](CCCCN)NC(=O)[C@@H](NC(=O)CNC(=O)[C@@H](NC(=O)[C@@H](NC(=O)[C@@H](NC(=O)[C@@H](N)CO)[C@@H](C)CC)[C@@H](C)CC)[C@@H](C)O)[C@@H](C)O)C(=O)N[C@@H](C)C(=O)N[C@H]1CSSC[C@@H](C(=O)O)NC(=O)[C@H]([C@@H](C)O)NC(=O)[C@H](CC(N)=O)NC(=O)CNC(=O)[C@H](CC(C)C)NC(=O)[C@H](CCCN=C(N)N)NC1=O [SIITGTKEAKLGQLGKQIACRLGNTC]	5.55 (≈ 15 µg/mL)		44.4 µM (≈ 120 µg/mL)			MIC [9]: 11.1 µM (≈ 30 µg/mL); MIC [10]: ≥ 44.4 µM
CC[C@H](C)[C@H](NC(=O)[C@H](CCC(N)=O)NC(=O)[C@H](CCCCN)NC(=O)[C@H](Cc1c[nH]c2ccccc12)NC(=O)[C@H](CC(C)C)NC(=O)[C@H](CCC(N)=O)NC(=O)[C@@H]1CCCN1C(=O)[C@H](CC(C)C)NC(=O)[C@H](CCCCN)NC(=O)[C@H](C)NC(=O)[C@H](CCC(=O)O)NC(=O)[C@H](CCCCN)NC(=O)[C@@H](NC(=O)[C@H](CCSC)NC(=O)[C@@H](NC(=O)[C@@H](NC(=O)[C@@H](NC(=O)[C@@H](N)CO)[C@@H](C)CC)[C@@H](C)CC)[C@@H](C)O)[C@@H](C)O)C(=O)N[C@@H](C)C(=O)N[C@H]1CSSC[C@@H](C(=O)O)NC(=O)[C@H]([C@@H](C)O)NC(=O)[C@H](CC(N)=O)NC(=O)CNC(=O)[C@H](CC(C)C)NC(=O)[C@H](CCCN=C(N)N)NC1=O [SIITMTKEAKLPQLWKQIACRLGNTC]	5.09 (≈ 15 µg/mL)		10.2 µM (≈ 30 µg/mL)			MIC [9]: 5.09 µM (≈ 15 µg/mL); MIC [10]: 20.4 µM (≈ 60 µg/mL)
